# Reference: patent publication US7671057B2, “Therapeutic agent for type II diabetes comprising protease-inhibiting compound” (Ono Pharmaceutical Co., Ltd., priority 2004, dated 2010)
# “Also recorded” adds a separate entry of the source.
# Assays:
# KK-A^y/Ta Jcl mice [1] = experiment: Plasma GLP-1, glucagon, blood-sugar, HbA1c and TG 30 min after forced oral administration on Day 28 (Example 3); assay type: in vivo, mouse
# Experimental: (§1) On Day 28 of administration of each compound in the form of an admixture with a food, furthermore, each animal after blood had been drawn from the tail vein was treated through individual forced oral administration of the Test Compound 2 in the form of the solutions individually consisting of 0.2, 0.6, 2.0 and 6.0 mg/mL-0.5% CMC suspension in each 5 mL/kg portion, as well as the Control Compound 1 in the form of the solutions individually consisting of 2.0 and 6 mg/mL-0.5% CMC suspension in each 5 ml/kg portion, followed by blood drawing 30 min. later and autopsy to thereby measure the weights of the pancreas, liver and kidney, whereby the control group was treated through administration of the 0.5% CMC suspension in the same portion.
# (§2) The blood samples taken from the tail vein on the respective specified days after the administration were subjected to measurement of the blood-sugar level in accordance with the method as described in Example 1, while the plasma glucagon level after the forced oral administration performed on Days 28 was measured in accordance with the ELISA method as described in Example 1. Also, the glycosylated hemoglobin (HbA1c) and GLP-1 levels were determined in accordance with the latex coagulation method and the ELISA method (YK160, GLP-1 EIA Kit, produced by K.K. Yanaihara Kenkyu-sho of Japan), respectively, while the TG level was measured in accordance with the method as described in Example 1. The total pancreatic insulin content after oral administration of each compound was determined by adding 75% ethanol to the isolated pancreas as frozen, followed by homogenization, and collecting the insulin fraction through Sep-Pak (C18; WATER) treatment of the supernatant liquid produced by centrifugation, followed by determination with the ELIZA method.
# [2] = Body weight, administration as admixture with food (Example 2); assay type: in vivo, mouse
# Experimental: (§3) KK-A^y/Ta Jcl Mice (male, 6- to 7-weeks aged, the number of cases; 8 animals) were treated through individual administration, in the form of an admixture with a food, of the Test Compound 2 (N-allyl-N-{(2E)-3-[4-({4-[amino(imino)methyl]phenoxy}-carbonyl)phenyl]-2-methyl-2-propenoyl}glycine/dimethane-sulfonate) of the present invention and the Control Compound 1 (5-(4-[2-(5-ethylpyridine-2-yl)ethoxy]benzyl)-1,3-thiazolidine-2,4-dione; pioglitazone) at the daily dose of 16.8 mg/100 g-food for 7 consecutive days, whereby the control group was fed with an ordinary food alone.
# (§4) Blood was drawn from the tail vein individually on the day (Day 1) preceding to administration of the Test Compound in the form of an admixture with a food, and on Days 2, 5, 7 and 14 of administration, and the blood samples were subjected to measurement of the blood-sugar level in accordance with the same procedure as described in Example 1, while, at the same time, the animals were weighed.
# KK-A^y/Ta Jcl mice [3] = experiment: Weights of pancreas, liver and kidney at autopsy (Example 3); assay type: in vivo, mouse
# Experimental: as §1
# KK-A^y/Ta Jcl mice [4] = experiment: Total pancreatic insulin content (Example 3); assay type: in vivo, mouse
# Experimental: as §2
# KK-A^y/Ta Jcl mice [5] = experiment: Blood-sugar level at satiety, dose-ranging food admixture up to Day 28 (Example 3); assay type: in vivo, mouse; conditions: for Blood-sugar level: end of the test (Day 28)
# Experimental: KK-A^y/Ta Jcl Mice (male, 6-weeks aged, the number of cases; 8 animals) were treated through individual administration, in the form of an admixture with a food, of the Test Compound 2 (N-allyl-N-{(2E)-3-[4-({4-[amino(imino)methyl]phenoxy}-carbonyl)phenyl]-2-methyl-2-propenoyl}glycine/dimethanesulfonate) of the present invention at the daily doses of 0.56 mg, 1.68 mg, 5.6 mg and 16.8 mg/100 g-food, respectively, and the Control Compound 1 (5-{4-[2-(5-ethylpyridine-2-yl)-ethoxy]benzyl}-1,3-thiazolidine-2,4-dion; pioglitazone) at the daily doses of 5.6 mg and 16.8 mg/100 g-food, respectively, […], whereby the control group was fed with an ordinary food alone.
# Blood was drawn from the tail vein individually on the day preceding to administration of each compound in the form of an admixture with a food, and on Days 6, 11, 16, 21 and 28 of administration.
# as §2
# KK-A^y/Ta Jcl mice [6] = experiment: Blood-sugar level, administration as admixture with food (Example 2); assay type: in vivo, mouse
# Experimental: as §3, §4
# [7] = system: pancreatic Langerhans' islets; experiment: Histopathological analysis of the pancreas (Example 3); assay type: in vivo, mouse; conditions: Day 28
# Experimental: Histopathological analysis of the pancreas (pathological analysis of the pancreatic Langerhans' islets (α-, β- and δ-cells) was carried out by embedding the tissue in paraffin, followed by thin slicing and respective staining through the Grimelius staining, Gomori's aldehyde-fuchsin staining and Hellman-Hellerstroem' staining.
# [8] = target: leukotriene B4 (LTB4) receptor (Homo sapiens, UniProt Q15722); conditions: cited from earlier work
# leukotriene B4 (LTB4) receptor, sequence (Q15722 whole entry): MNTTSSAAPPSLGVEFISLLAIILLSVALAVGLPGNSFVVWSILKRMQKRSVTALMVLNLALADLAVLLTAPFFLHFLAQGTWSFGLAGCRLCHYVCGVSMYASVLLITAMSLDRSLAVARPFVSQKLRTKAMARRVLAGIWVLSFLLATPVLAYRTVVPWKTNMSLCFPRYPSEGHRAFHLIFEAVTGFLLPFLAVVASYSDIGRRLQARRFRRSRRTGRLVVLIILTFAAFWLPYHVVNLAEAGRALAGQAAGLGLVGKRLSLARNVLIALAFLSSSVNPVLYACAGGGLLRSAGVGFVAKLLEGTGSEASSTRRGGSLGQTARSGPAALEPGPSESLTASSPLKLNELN
# [9] = day preceding administration (baseline), 16.8 mg/100 g-food group
# [10] = autopsy Day 28, Dose 0.56 (g/100 g-food)
# [11] = autopsy Day 28, Dose 1.68 (g/100 g-food)
# [12] = autopsy Day 28, Dose 16.8 (g/100 g-food)
structure (smiles),measurement,setting,value
"C=CCN(CC(=O)O)C(=O)/C(C)=C/c1ccc(C(=O)Oc2ccc(C(=N)N)cc2)cc1 [Test Compound 2, N-allyl-N-{(2E)-3-[4-({4-[amino(imino)methyl]phenoxy}-carbonyl)phenyl]-2-methyl-2-propenoyl}glycine/dimethane-sulfonate]",Change in HbA1C level (in words),KK-A^y/Ta Jcl mice [1],decreased
same,Change in TG level (in words),KK-A^y/Ta Jcl mice [1],decreased
same,Change in blood-sugar level (in words),KK-A^y/Ta Jcl mice [1],decreased
same,Change in plasma glucagon level (in words),KK-A^y/Ta Jcl mice [1],drops in the plasma glucagon level
same,Change in plasma GLP-1 level (in words),KK-A^y/Ta Jcl mice [1]; 30 min after forced oral administration,plasma GLP-1 increasing effect
same,Body weight Day 2,[2]; 16.8 mg/100 g-food admixture,29.8 ± 0.7 g
same,Body weight Day 5,[2]; 16.8 mg/100 g-food admixture,30.6 ± 0.8 g
same,Body weight Day 7,[2]; 16.8 mg/100 g-food admixture,32.4 ± 1.0 g
same,Body weight Day 14,[2]; 16.8 mg/100 g-food admixture,34.6 ± 1.3 g
same,Body weight Day 1,[2]; [9],30.6 ± 0.6 g
same,Effect on body weight (in words),"[2]; food admixture 16.8 mg/100 g-food, time course",not observed to produce any difference from the control group; also recorded: did not show any body-weight elevating actions
same,Weight of the kidney (in words),KK-A^y/Ta Jcl mice [3]; autopsy Day 28,suppressed from rising
same,Weight of the liver (in words),KK-A^y/Ta Jcl mice [3]; autopsy Day 28,suppressed from rising
same,Weight of the pancreas (in words),KK-A^y/Ta Jcl mice [3]; autopsy Day 28,increased
same,Weight Kidney,KK-A^y/Ta Jcl mice [3]; [10],0.47 ± 0.01 g
same,Weight Liver,KK-A^y/Ta Jcl mice [3]; [10],2.01 ± 0.08 g
same,Weight Pancreas,KK-A^y/Ta Jcl mice [3]; [10],0.342 ± 0.01 g
same,Weight Kidney,KK-A^y/Ta Jcl mice [3]; [11],0.49 ± 0.01 g
same,Weight Liver,KK-A^y/Ta Jcl mice [3]; [11],2.08 ± 0.07 g
same,Weight Pancreas,KK-A^y/Ta Jcl mice [3]; [11],0.41 ± 0.02 g
same,Weight Kidney,KK-A^y/Ta Jcl mice [3]; [12],0.41 ± 0.01 g
same,Weight Liver,KK-A^y/Ta Jcl mice [3]; [12],1.52 ± 0.06 g
same,Weight Pancreas,KK-A^y/Ta Jcl mice [3]; [12],0.45 ± 0.03 g
same,Total pancreatic insulin content (in words),KK-A^y/Ta Jcl mice [4]; Day 28,increase in the total pancreatic insulin content
same,Total pancreatic insulin content,"KK-A^y/Ta Jcl mice [4]; Day 28, Dose 1.68 (g/100 g-food)",9.40 ± 2.24 µg
same,Total pancreatic insulin content,"KK-A^y/Ta Jcl mice [4]; Day 28, Dose 5.6 (g/100 g-food)",17.11 ± 2.76 µg
same,"Time-course changes in blood-sugar level at satiety vs Control Group (in words, FIG. 1)",KK-A^y/Ta Jcl mice [5]; 5.6 mg/100 g group,significant drop in the blood-sugar level at the end of the test
same,"Time-course changes in blood-sugar level at satiety vs Control Group (in words, FIG. 1)",KK-A^y/Ta Jcl mice [5]; 16.8 mg/100 g group,significant continued drops in the blood-sugar level
same,Blood-sugar level,KK-A^y/Ta Jcl mice [5]; Dose 0.56 (g/100 g-food),524.6 ± 47.3 mg/dL
same,Blood-sugar level,KK-A^y/Ta Jcl mice [5]; Dose 1.68 (g/100 g-food),620.9 ± 79.6 mg/dL
same,Blood-sugar level,KK-A^y/Ta Jcl mice [5]; Dose 5.6 (g/100 g-food),369.7 ± 39.6 mg/dL
same,Blood-sugar level,KK-A^y/Ta Jcl mice [5]; Dose 16.8 (g/100 g-food),251.2 ± 34.7 mg/dL
same,Blood-sugar level Day 2,KK-A^y/Ta Jcl mice [6]; 16.8 mg/100 g-food admixture,286.5 ± 58.3 mg/dL
same,Blood-sugar level Day 5,KK-A^y/Ta Jcl mice [6]; 16.8 mg/100 g-food admixture,314.8 ± 14.4 mg/dL
same,Blood-sugar level Day 7,KK-A^y/Ta Jcl mice [6]; 16.8 mg/100 g-food admixture,291.0 ± 5.1 mg/dL
same,Blood-sugar level Day 14,KK-A^y/Ta Jcl mice [6]; 16.8 mg/100 g-food admixture,248.0 ± 11.5 mg/dL
same,Blood-sugar level Day 1,KK-A^y/Ta Jcl mice [6]; [9],300.0 ± 18.9 mg/dL
same,Blood-sugar lowering action (in words),"KK-A^y/Ta Jcl mice [6]; food admixture 16.8 mg/100 g-food, as from Day 5 afterwards",significant blood-sugar lowering action; also recorded: more potent blood-sugar lowering action
same,Number of pancreatic B-cells (postmortem findings),[7],increase the number of pancreatic B-cells
same,Size of Langerhans' cells of the pancreatic islets (postmortem findings),[7],enlarge the Langerhans' cells of the pancreatic islets
same,LTB4 receptor antagonistic action,[8],LTB4 antagonistic action
